Experimental data taken from PubChem BioAssay (NCI).
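Protocol summary: plate cells (96-well), add compound at 5 concentrations, incubate 48 h, interpolate endpoints linearly. GI50 marks 50% less growth. The concentration for full growth arrest is given as TGI.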

Assays:
Assay in all cases: NCI tumour cell line growth inhibition, 48 h
SK-MEL-28 melanoma = system: SK-MEL-28 melanoma
BT-549 breast = system: BT-549 breast
SR leukemia = system: SR leukemia
HS 578T breast = system: HS 578T breast
EKVX NSCLC = system: EKVX NSCLC
UACC-257 melanoma = system: UACC-257 melanoma
OVCAR-8 ovarian = system: OVCAR-8 ovarian
RXF 393 renal = system: RXF 393 renal
KM12 colon = system: KM12 colon
HOP-62 NSCLC = system: HOP-62 NSCLC
HCT-15 colon = system: HCT-15 colon
RPMI-8226 leukemia = system: RPMI-8226 leukemia
MALME-3M melanoma = system: MALME-3M melanoma
SF-295 CNS = system: SF-295 CNS
786-0 renal = system: 786-0 renal
SN12C renal = system: SN12C renal
SW-620 colon = system: SW-620 colon
SF-268 CNS = system: SF-268 CNS
K-562 leukemia = system: K-562 leukemia
SK-MEL-2 melanoma = system: SK-MEL-2 melanoma
M14 melanoma = system: M14 melanoma
DU-145 prostate = system: DU-145 prostate
UO-31 renal = system: UO-31 renal
OVCAR-4 ovarian = system: OVCAR-4 ovarian
SNB-75 CNS = system: SNB-75 CNS
HOP-92 NSCLC = system: HOP-92 NSCLC
TK-10 renal = system: TK-10 renal
PC-3 prostate = system: PC-3 prostate
HCC-2998 colon = system: HCC-2998 colon
MDA-MB-435 = system: MDA-MB-435
SK-MEL-5 melanoma = system: SK-MEL-5 melanoma
IGROV1 ovarian = system: IGROV1 ovarian
HL-60(TB) leukemia = system: HL-60(TB) leukemia
NCI-H23 lung = system: NCI-H23 lung
SK-OV-3 ovarian = system: SK-OV-3 ovarian
T-47D breast = system: T-47D breast
SF-539 CNS = system: SF-539 CNS
OVCAR-3 ovarian = system: OVCAR-3 ovarian
CCRF-CEM leukemia = system: CCRF-CEM leukemia
MDA-MB-231 breast = system: MDA-MB-231 breast
NCI-H522 lung = system: NCI-H522 lung
NCI-H460 lung = system: NCI-H460 lung
COLO 205 colon = system: COLO 205 colon
HCT-116 colon = system: HCT-116 colon
NCI/ADR-RES ovarian = system: NCI/ADR-RES ovarian
A549 NSCLC = system: A549 NSCLC
U251 CNS = system: U251 CNS
MCF7 breast = system: MCF7 breast
HT29 colon = system: HT29 colon
UACC-62 melanoma = system: UACC-62 melanoma
ACHN renal = system: ACHN renal
LOX IMVI melanoma = system: LOX IMVI melanoma
A498 renal = system: A498 renal
MOLT-4 leukemia = system: MOLT-4 leukemia
OVCAR-5 ovarian = system: OVCAR-5 ovarian
SNB-19 CNS = system: SNB-19 CNS
CAKI-1 renal = system: CAKI-1 renal
NCI-H226 lung = system: NCI-H226 lung

## C/C(=N\NC(=O)c1cccc(S(=O)(=O)N2CCN(C)CC2)c1)c1cc(Cl)ccc1O
SK-MEL-28 melanoma
  GI50: 1.36 µM
  TGI: > 61.3 µM
BT-549 breast
  GI50: 1.94 µM
  TGI: 36 µM
SR leukemia
  GI50: 0.383 µM
  TGI: > 52.9 µM
HS 578T breast
  GI50: 4.54 µM
  TGI: > 74.8 µM
EKVX NSCLC
  GI50: 0.354 µM
  TGI: > 63.1 µM
UACC-257 melanoma
  GI50: 2.37 µM
  TGI: 25.8 µM
OVCAR-8 ovarian
  GI50: 0.494 µM
  TGI: > 100 µM
RXF 393 renal
  GI50: 2.8 µM
  TGI: 23.9 µM
KM12 colon
  GI50: 0.713 µM
  TGI: > 66.8 µM
HOP-62 NSCLC
  GI50: 0.461 µM
  TGI: 37.3 µM
HCT-15 colon
  GI50: 0.27 µM
  TGI: > 43.6 µM
RPMI-8226 leukemia
  GI50: 1.33 µM
  TGI: > 100 µM
MALME-3M melanoma
  GI50: 2.39 µM
  TGI: 36.6 µM
SF-295 CNS
  GI50: 0.998 µM
  TGI: 21.9 µM
786-0 renal
  GI50: 0.992 µM
  TGI: > 100 µM
SN12C renal
  GI50: 1.19 µM
  TGI: > 100 µM
SW-620 colon
  GI50: 0.705 µM
  TGI: > 94.9 µM
SF-268 CNS
  GI50: 0.933 µM
  TGI: > 63.8 µM
K-562 leukemia
  GI50: 0.824 µM
  TGI: > 52.8 µM
SK-MEL-2 melanoma
  GI50: 3.46 µM
  TGI: > 72.6 µM
M14 melanoma
  GI50: 1.06 µM
  TGI: 9.85 µM
DU-145 prostate
  GI50: 1.15 µM
  TGI: > 100 µM
UO-31 renal
  GI50: 0.184 µM
  TGI: 12.6 µM
OVCAR-4 ovarian
  GI50: 0.545 µM
  TGI: > 100 µM
SNB-75 CNS
  GI50: 0.648 µM
  TGI: 32.3 µM
HOP-92 NSCLC
  GI50: 4.85 µM
  TGI: > 90.1 µM
TK-10 renal
  GI50: 0.491 µM
  TGI: > 88.6 µM
PC-3 prostate
  GI50: 1.18 µM
  TGI: > 100 µM
HCC-2998 colon
  GI50: 0.571 µM
  TGI: 28.7 µM
MDA-MB-435
  GI50: 2.74 µM
  TGI: > 100 µM
SK-MEL-5 melanoma
  GI50: 1.29 µM
  TGI: 3.87 µM
IGROV1 ovarian
  GI50: 0.677 µM
  TGI: > 66.5 µM
HL-60(TB) leukemia
  GI50: 0.717 µM
  TGI: 17.1 µM
NCI-H23 lung
  GI50: 0.74 µM
  TGI: 45 µM
SK-OV-3 ovarian
  GI50: 0.938 µM
  TGI: > 54.6 µM
T-47D breast
  GI50: 0.634 µM
  TGI: > 100 µM
SF-539 CNS
  GI50: 1.06 µM
  TGI: 21.8 µM
OVCAR-3 ovarian
  GI50: 0.385 µM
  TGI: > 100 µM
CCRF-CEM leukemia
  GI50: 0.422 µM
  TGI: > 100 µM
MDA-MB-231 breast
  GI50: 0.667 µM
  TGI: > 100 µM
NCI-H522 lung
  GI50: 1.26 µM
  TGI: > 72.7 µM
NCI-H460 lung
  GI50: 0.395 µM
  TGI: > 32 µM
COLO 205 colon
  GI50: 0.387 µM
  TGI: 15.3 µM
HCT-116 colon
  GI50: 0.48 µM
  TGI: > 76.2 µM
NCI/ADR-RES ovarian
  GI50: 1.33 µM
  TGI: 14.9 µM
A549 NSCLC
  GI50: 0.761 µM
  TGI: > 100 µM
U251 CNS
  GI50: 0.414 µM
  TGI: > 100 µM
MCF7 breast
  GI50: 0.423 µM
  TGI: > 100 µM
HT29 colon
  GI50: 0.397 µM
  TGI: 20.1 µM
UACC-62 melanoma
  GI50: 0.873 µM
  TGI: 6.4 µM
ACHN renal
  GI50: 0.46 µM
  TGI: > 100 µM
LOX IMVI melanoma
  GI50: 0.518 µM
  TGI: 13 µM
A498 renal
  GI50: 40.6 µM
  TGI: > 100 µM
MOLT-4 leukemia
  GI50: 0.47 µM
  TGI: > 49.4 µM
OVCAR-5 ovarian
  GI50: 1.86 µM
  TGI: > 100 µM
SNB-19 CNS
  GI50: 2.03 µM
  TGI: > 100 µM
CAKI-1 renal
  GI50: 0.567 µM
  TGI: 27.5 µM
NCI-H226 lung
  GI50: 0.713 µM
  TGI: 8.42 µM
